# From US12066445B2, “System and method for cell levitation and monitoring” (THE BRIGHAM AND WOMEN'S HOSPITAL, INC., priority 2014, dated 2024)
# Structures can show the parent of a compound that is named as a salt.
# Key:
# [1] = system: RBCs; experiment: Levitation of RBCs after photolysis of caged ATP; assay type: cell-based; details: extracellular ATP 0 to close to 10 mM after photolysis, 40 mM Gd+, FIG. 4c
# Excerpt: Consistent with this possibility that UV-induced ROS increased the paramagnetic signature of RBCs, in areas with increased cell density, RBCs formed distinct aggregates, shown as the red circle in FIG. 4b, likely due to weak paramagnetic attraction between ROS-containing RBCs. To test this hypothesis, a burst of extracellular ATP to dissociate 2-3 DPG (2,3-diphosphoglycerate) from hemoglobin was used, a process that also transitions RBCs from diamagnetic to weak paramagnetic cells. Isolated RBCs were washed and resuspended in HBSS^++ containing 40 mM Gd+ and 10 mM caged ATP (Life Technologies). RBCs were loaded into the capillary, placed between the magnets, and allowed to focus. Next, a region of 60×900 μm located about 70 μm above the levitating RBCs was selected and illuminated by a […] for 1 second at 100% intensity. The un-caged ATP, released into the suspension increased the extracellular concentration of ATP from 0 to nearly 10 mM. Cells were recorded using Slidebook 5.5. Following photolysis, caged-ATP became ATP, effectively increasing the concentration of biologically-active, extracellular ATP from 0 to close to 10 mM. […]
# [2] = system: human PMNs; experiment: Static levitation of activated and GSH-treated PMNs; assay type: cell-based
# Protocol: Freshly isolated PMNs were activated by incubating them either with buffer (resting PMN), GSH-ME (GSH-treated PMN), or 10 nM PMA (activated PMN) for 5 minutes, washing twice, mixing, and resuspending them in 35 mM Gd+ solution. Prior to treatments, cells were labeled either with Cell Tracker Green (activated PMN) or Cell Mask Deep Red (GSH-treated PMN).
# The response of human PMNs during the activation phase of phagocytosis was studied by incubating PMNs with phorbol 12-myristate 13-acetate (PMA, 10 nM) for 10 minutes. As a control, PMNs were left in buffer for 10 minutes. Cells were then washed, fluorescently labeled, mixed together, and loaded into the magnetic levitation setup.
# [formula] […] The same samples were simultaneously examined by flow cytometry for changes in forward and side-scatter properties of PMNs associated with PMA activation, shown in FIG. 3d.
# To further understand the effect of intracellular ROS on the final position of levitating cells, cell permeable glutathione (GSH), an ROS scavenger was used.
# [3] = system: MDA breast cancer cells
# Protocol: FIG. 12b details the real-time observation of a HCl-applied single cell in which a viability assay was also conducted using Calcein (green fluorescent) for live cell and Propidium Iodine (red fluorescent) for dead cell. Fluorescent images and bright field images were overlapped each other to compose the micrographs at different time point.
# [4] = system: E. coli; experiment: Magnetic levitation profile of E. coli after antibiotic treatment; assay type: cell-based; details: for change of levitation heights and cellular magnetic profiles versus untreated control: E. coli treated two hours, 1 mg/mL, FIG. 21
# Excerpt: As the bacteria respond to the stimuli and antibiotics, their density are altered. This directly reflects on their levitation heights.
# With forward reference to FIG. 21, differences are illustrated in the observed magnetic levitation profiles of E. coli cells after different types of antibiotic treatment. […] The magnetic levitation profile of each of these antibiotics are compared to a control (i.e., untreated E. coli cells) in FIGS. 21a, 21b, and 21c, respectively.
# (§1) In the examples above, to load samples into a microcapillary tube, microcapillaries were simply dipped into the sample vials, and sample filled into the capillary due to capillary forces. For each experiment, new microcapillary was used. Further, unless otherwise stated, cells were resuspended in 200 μL of 40 mM Gadolinium solution and loaded in 1.0×1.0 mm square microcapillary tubes (wall thickness 0.2 mm) by superficial tension action. Critoseal™ was inserted into either end of the microcapillary to prevent cells from drifting during analysis. The capillary was then loaded into a slot between the magnets and cells were imaged using either QImaging Emc^2 EMCCD camera on an Olympus BX62 microscope or a Qimaging EXi CCD camera on a Zeiss Axioscope microscope. For high-resolution images, a fluorescence microscope leveled on its side was perfectly horizontally placed, and used a mirror-free magnetic levitation setup. The images were analyzed with Slidebook 5.5. (3i, Denver, CO), ImageProPlus 7 (Media Cybernetics, Rockville, MD), and iVison 4.7 (Biovision, Exton PA).
# [5] = system: multi-drug resistant E. coli; experiment: Magnetic levitation profile of multi-drug resistant E. coli after antibiotic treatment; assay type: cell-based; details: multi-drug resistant E. coli clinical isolate, 1 mg/mL, two hours, FIG. 22
# Protocol: as §1
# [6] = system: multi-drug resistant E. coli; details: cited from earlier work
# [7] = system: yeast cells; experiment: Viability and magnetic levitation of yeast cells after drug treatment; assay type: cell-based; details: for levitation heights, magnetic properties and intrinsic magnetic signatures of yeast cells: 100 μM for 24 hours, 15 minutes of magnetic levitation, FIG. 14b; for viability of yeast cells (optical density): 100 μM, 24 hours, FIG. 14a
# Protocol: Looking at FIG. 14, the magnetic levitation and characteristics of yeast cells are illustrated that have either not been exposed or have been exposed to various drug treatments for some duration of time. FIG. 14a graphs the viability of yeast cells after different drug treatments (i.e., no drug treatment/control, 100 μM cantharidin, or 100 μM fluconazole) for 24 hours. […] FIG. 14b provides micrographs illustrating how, after 15 minutes of magnetic levitation, the levitation heights, magnetic properties and intrinsic magnetic signatures of yeast cells are altered after drug treatment with 100 μM cantharidin and 100 μM fluconazole for 24 hours.
# Turning now to FIG. 15, this figure provides data relating to the observed drug responses and observed changes in magnetic profile of cells. […] FIG. 15d provides various micrographs of cells treated with different concentration of drug (fluconazole), the treatment concentration being listed above each micrograph. […] It is further noted that these changes can be monitored with the magnetic levitation system at the single-cell level.
# as §1
# [8] = system: sickle RBCs; experiment: Levitation of healthy and sickle RBCs after sodium metabisulfite-induced dehydration; assay type: cell-based, human; details: 10 μM for 10 minutes at room temperature, images after 10 minutes of levitation
# Protocol: RBCs isolated from healthy and sickle cell disease patients were washed three times and incubated with 10 μM sodium metabisulfite for 10 minutes at room temperature. Cells were levitated as described above and images were recorded after 10 minutes. To increase the contrast of the cells against the background, images were filtered using an edge detection algorithm (Roberts).
compound,measurement,setting,value
Nc1ncnc2c1ncn2[C@@H]1O[C@H](COP(=O)(O)OP(=O)(O)OP(=O)(O)O)[C@@H](O)[C@H]1O [ATP],changes in magnetic properties and levitation of RBCs,[1],loss of levitation
"CCOC(=O)CNC(=O)[C@H](CS)NC(=O)CC[C@H](N)C(=O)O [GSH, Glutathione reduced ethyl ester]",final levitation position of treated PMNs,"[2]; 35 mM Gd+ solution, FIG. 3e",equilibrated closer to resting PMNs
"Cl [HCl, hydrochloric acid]",levitation height z of treated cells (bottom of the channel),"[3]; 40 minutes of exposure to 100 mM HCl, FIG. 12a",−500 μm
same,viability assay (Calcein / Propidium Iodine) of a single cell,"[3]; HCl-applied single cell, over 700 seconds, FIG. 12b",dying cell
"CCCCCCCCCCCCCC(=O)O[C@@H]1[C@@H](C)[C@@]2(O)[C@@H](C=C(CO)C[C@]3(O)C(=O)C(C)=C[C@@H]23)[C@@H]2C(C)(C)[C@]12OC(C)=O [PMA, phorbol 12-myristate 13-acetate]","size, shape, optical density, magnetic and mass density signatures versus control PMNs","[2]; 10 nM for 10 minutes, FIG. 3a",distinct differences
same,roundness of cells versus buffer-treated PMNs,"[2]; PMA-activated PMNs, FIG. 3c",significant difference
CC1(C)S[C@@H]2[C@H](NC(=O)[C@H](N)c3ccccc3)C(=O)N2[C@H]1C(=O)O [ampicillin],change of levitation heights and cellular magnetic profiles versus untreated control,[4],change the levitation heights and cellular magnetic profiles in a different manner
same,differences between untreated and treated bacteria in magnetic levitation heights,"[4]; E. coli, FIG. 13",significant differences
same,change in levitation heights and magnetic levitation profiles,[5],no significant change
same,resistance or susceptibility of the clinical isolate,[6],resistant
C[C@@]12C(=O)OC(=O)[C@]1(C)[C@H]1CC[C@@H]2O1 [cantharidin],"levitation heights, magnetic properties and intrinsic magnetic signatures of yeast cells",[7],altered
same,viability of yeast cells (optical density),[7],Different viabilities are observed
O=C(O)c1cn(C2CC2)c2cc(N3CCNCC3)c(F)cc2c1=O [ciprofloxacin],change of levitation heights and cellular magnetic profiles versus untreated control,[4],change the levitation heights and cellular magnetic profiles in a different manner
OC(Cn1cncn1)(Cn1cncn1)c1ccc(F)cc1F [fluconazole],"levitation heights, magnetic properties and intrinsic magnetic signatures of yeast cells",[7],altered
same,viability of yeast cells (optical density),[7],Different viabilities are observed
same,cellular magnetic profiles and single-cell densities,"[7]; 25, 50 or 100 μM, FIG. 15",cellular magnetic profiles and densities change
O=S([O-])S(=O)(=O)[O-].[Na+].[Na+] [sodium metabisulfite],density of a subpopulation of sickle RBCs after treatment,[8],significantly denser than healthy RBCs
gentamicin,change of levitation heights and cellular magnetic profiles versus untreated control,[4],change the levitation heights and cellular magnetic profiles in a different manner
same,change in levitation heights and magnetic levitation profiles,[5],noticeable change
same,resistance or susceptibility of the clinical isolate,[6],susceptible
